Measurements reported in PMC8863071, “Functional Analysis of H^+-Pumping Membrane-Bound Pyrophosphatase, ADP-Glucose Synthase, and Pyruvate Phosphate Dikinase as Pyrophosphate Sources in Clostridium thermocellum” (Applied and Environmental Microbiology, 2022).

Molecular target: T1, ADP-glucose synthase (Ags; ags1 ags2) (Acetivibrio thermocellus, UniProt A3DK82)
T1 construct: gene glgC; both subunits co-expressed untagged from pTrc99a (pTK30) in E. coli BL21; cell extract
T1 sequence (A3DK82 1-426): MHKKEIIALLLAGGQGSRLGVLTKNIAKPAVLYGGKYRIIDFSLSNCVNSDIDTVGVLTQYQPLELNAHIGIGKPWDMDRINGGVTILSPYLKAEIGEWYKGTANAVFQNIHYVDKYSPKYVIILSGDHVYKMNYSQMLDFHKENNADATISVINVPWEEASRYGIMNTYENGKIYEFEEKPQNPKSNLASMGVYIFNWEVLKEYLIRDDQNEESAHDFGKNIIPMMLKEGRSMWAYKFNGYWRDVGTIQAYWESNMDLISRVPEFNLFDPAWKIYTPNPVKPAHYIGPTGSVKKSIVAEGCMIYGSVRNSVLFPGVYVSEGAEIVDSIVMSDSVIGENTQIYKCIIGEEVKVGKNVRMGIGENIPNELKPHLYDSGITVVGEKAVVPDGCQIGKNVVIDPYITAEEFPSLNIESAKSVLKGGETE
T1 sequence (A3DK83 1-373 partner): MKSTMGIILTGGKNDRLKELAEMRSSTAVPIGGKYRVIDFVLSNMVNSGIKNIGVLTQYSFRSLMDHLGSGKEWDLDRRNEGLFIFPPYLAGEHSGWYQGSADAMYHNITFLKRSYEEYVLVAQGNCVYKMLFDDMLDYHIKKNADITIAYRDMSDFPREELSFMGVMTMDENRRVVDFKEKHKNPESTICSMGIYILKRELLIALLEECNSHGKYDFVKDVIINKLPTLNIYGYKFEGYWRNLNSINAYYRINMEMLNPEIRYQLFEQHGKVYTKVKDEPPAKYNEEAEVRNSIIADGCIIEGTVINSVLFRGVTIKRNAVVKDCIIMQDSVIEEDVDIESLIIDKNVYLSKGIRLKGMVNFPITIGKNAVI
Assay: coupled NADP+ assay, pyrophosphorolysis direction
Assay type: biochemical
Settings: 1 mM ADP-glucose, 1 mM PPi, 4 mM MgCl2, 2 mM fructose-1,6-bisphosphate, pH 7.5, 55°C

Nc1ncnc2c1ncn2[C@@H]1O[C@H](COP(=O)(O)OP(=O)(O)O[C@H]2O[C@H](CO)[C@@H](O)[C@H](O)[C@H]2O)[C@@H](O)[C@H]1O [ADP-glucose] was tested, and the “coupled NADP+ assay, pyrophosphorolysis direction” value was “the activity was found to be ADP-glucose dependent”.
